Experimental data reported in patent US8101550B2, “Anthranilic acid diamide derivative with hetero-aromatic and hetero-cyclic substituents” (Bayer Cropscience AG, priority 2006, dated 2012).

Assay: log P determination by HPLC on reverse-phase column (EEC Directive 79/831 Annex V.A8)
Assay type: physicochemical
Summary of the method: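 Log P was derived from retention times by linear interpolation between successive unbranched alkan-2-one standards (C3–C16). The standards and samples ran on a C18 reverse-phase column at 43 °C with a 10→95% acetonitrile gradient in 0.1% formic acid (pH 2.7). The method follows EEC Directive 79/831 Annex V.A8.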
In the case of `Cc1cc(C#N)cc(C(=O)NCC#N)c1NC(=O)c1cc(Cn2nc(C(F)(F)F)nc2C(F)(F)F)nn1-c1ncccc1Cl` [I-1-180], the logP is reported as 3.11. Molecule `CNC(=O)c1cc(C#N)cc(C)c1NC(=O)c1cc(Cn2ccc(C(F)(F)F)n2)nn1-c1ncccc1Cl` [I-1-181] has a logP of 2.57. In the case of `Cc1cc(C#N)cc(C(=O)NC(C)C)c1NC(=O)c1cc(Cn2ccc(C(F)(F)F)n2)nn1-c1ncccc1Cl` [I-1-182], the logP is reported as 2.96. Molecule `Cc1cc(C#N)cc(C(=O)NC2CC2)c1NC(=O)c1cc(Cn2ccc(C(F)(F)F)n2)nn1-c1ncccc1Cl` [I-1-183] has a logP of 2.75. Work on `Cc1cc(C#N)cc(C(N)=O)c1NC(=O)c1cc(Cn2ccc(C(F)(F)F)n2)nn1-c1ncccc1Cl` [I-1-184] yielded a logP of 2.42. `Cc1cc(C#N)cc(C(=O)NCC#N)c1NC(=O)c1cc(Cn2ccc(C(F)(F)F)n2)nn1-c1ncccc1Cl` [I-1-185] gave a logP of 2.62. `CNC(=O)c1cc(C#N)cc(C)c1NC(=O)c1cc(Cn2nc(C(F)(F)F)cc2C(F)(F)F)nn1-c1ncccc1Cl` [I-1-186] showed a logP of 3.35. In the case of `Cc1cc(C#N)cc(C(=O)NC(C)C)c1NC(=O)c1cc(Cn2nc(C(F)(F)F)cc2C(F)(F)F)nn1-c1ncccc1Cl` [I-1-187], the logP is reported as 3.80. Molecule `Cc1cc(C#N)cc(C(=O)NC2CC2)c1NC(=O)c1cc(Cn2nc(C(F)(F)F)cc2C(F)(F)F)nn1-c1ncccc1Cl` [I-1-188] has a logP of 3.56. For `Cc1cc(C#N)cc(C(N)=O)c1NC(=O)c1cc(Cn2nc(C(F)(F)F)cc2C(F)(F)F)nn1-c1ncccc1Cl` [I-1-189], the logP was 3.15. For `Cc1cc(C#N)cc(C(=O)NCC#N)c1NC(=O)c1cc(Cn2nc(C(F)(F)F)cc2C(F)(F)F)nn1-c1ncccc1Cl` [I-1-190], the logP was 3.28. With `Cc1cc(C#N)cc(C(=O)NC2CC2)c1NC(=O)c1cc(Cn2cc(C(F)(F)C(F)(F)F)c(C(F)(F)C(F)(F)F)n2)nn1-c1ncccc1Cl` [I-1-191] the logP was 4.29. Molecule `Cc1cc(C#N)cc(C(N)=O)c1NC(=O)c1cc(Cn2cc(C(F)(F)C(F)(F)F)c(C(F)(F)C(F)(F)F)n2)nn1-c1ncccc1Cl` [I-1-192] has a logP of 3.91. Work on `Cc1cc(C#N)cc(C(=O)NCC#N)c1NC(=O)c1cc(Cn2cc(C(F)(F)C(F)(F)F)c(C(F)(F)C(F)(F)F)n2)nn1-c1ncccc1Cl` [I-1-193] yielded a logP of 4.04. `CSCC(C)NC(=O)c1cc(F)cc(C)c1NC(=O)c1cc(Cn2cc(Cl)c(C(F)(F)C(F)(F)F)n2)nn1-c1ncccc1Cl` (stereo not shown) [I-1-195] gave a logP of 4.13. `Cc1cc(F)cc(C(=O)NCc2ccco2)c1NC(=O)c1cc(Cn2cc(Cl)c(C(F)(F)C(F)(F)F)n2)nn1-c1ncccc1Cl` [I-1-196] showed a logP of 3.90. In the case of `Cc1cc(C#N)cc(C(=O)NC2C3CCCCC32)c1NC(=O)c1cc(Cn2cc(Cl)c(C(F)(F)C(F)(F)F)n2)nn1-c1ncccc1Cl` (stereo not shown) [I-1-197], the logP is reported as 4.50. `Cc1cc(C#N)cc(C(=O)NC2CC2CO)c1NC(=O)c1cc(Cn2cc(Cl)c(C(F)(F)C(F)(F)F)n2)nn1-c1ncccc1Cl` (stereo not shown) [I-1-198] showed a logP of 3.11. `Cc1cc(F)cc(C(=O)NC2C3CCCCC32)c1NC(=O)c1cc(Cn2cc(Cl)c(C(F)(F)C(F)(F)F)n2)nn1-c1ncccc1Cl` (stereo not shown) [I-1-199] showed a logP of 4.55. `Cc1cc(Cl)cc(C(=O)NCc2ccco2)c1NC(=O)c1cc(Cn2cc(Cl)c(C(F)(F)C(F)(F)F)n2)nn1-c1ncccc1Cl` [I-1-201] showed a logP of 4.21. In the case of `Cc1cc(Cl)cc(C(=O)NC2CCCC2N)c1NC(=O)c1cc(Cn2cc(Cl)c(C(F)(F)C(F)(F)F)n2)nn1-c1ncccc1Cl` (stereo not shown) [I-1-202], the logP is reported as 2.30. Work on `Cc1cc(F)cc(C(=O)NC2CC2CO)c1NC(=O)c1cc(Cn2cc(Cl)c(C(F)(F)C(F)(F)F)n2)nn1-c1ncccc1Cl` (stereo not shown) [I-1-203] yielded a logP of 3.14. `Cc1cc(F)cc(C(=O)NC(C)CS(C)(=O)=O)c1NC(=O)c1cc(Cn2cc(Cl)c(C(F)(F)C(F)(F)F)n2)nn1-c1ncccc1Cl` (stereo not shown) [I-1-204] gave a logP of 3.34. With `Cc1cc(Cl)cc(C(=O)NC2C3CCCCC32)c1NC(=O)c1cc(Cn2cc(Cl)c(C(F)(F)C(F)(F)F)n2)nn1-c1ncccc1Cl` (stereo not shown) [I-1-205] the logP was 4.88. Molecule `CSCC(C)NC(=O)c1cc(Cl)cc(C)c1NC(=O)c1cc(Cn2cc(Cl)c(C(F)(F)C(F)(F)F)n2)nn1-c1ncccc1Cl` (stereo not shown) [I-1-206] has a logP of 4.41. For `Cc1cc(Cl)cc(C(=O)NC2CC2CO)c1NC(=O)c1cc(Cn2cc(Cl)c(C(F)(F)C(F)(F)F)n2)nn1-c1ncccc1Cl` (stereo not shown) [I-1-207], the logP was 3.37. Molecule `Cc1cc(C#N)cc(C(=O)NCc2ccco2)c1NC(=O)c1cc(Cn2cc(Cl)c(C(F)(F)C(F)(F)F)n2)nn1-c1ncccc1Cl` [I-1-208] has a logP of 3.90. With `CSCC(C)NC(=O)c1cc(C#N)cc(C)c1NC(=O)c1cc(Cn2cc(Cl)c(C(F)(F)C(F)(F)F)n2)nn1-c1ncccc1Cl` (stereo not shown) [I-1-209] the logP was 4.05. `Cc1cc(C#N)cc(C(=O)NC(C)CS(C)(=O)=O)c1NC(=O)c1cc(Cn2cc(Cl)c(C(F)(F)C(F)(F)F)n2)nn1-c1ncccc1Cl` (stereo not shown) [I-1-210] gave a logP of 3.34. `Cc1cc(C#N)cc(C(=O)NC(C)C[S+](C)[O-])c1NC(=O)c1cc(Cn2cc(Cl)c(C(F)(F)C(F)(F)F)n2)nn1-c1ncccc1Cl` (stereo not shown) [I-1-211] showed a logP of 3.02. `Cc1cc(Cl)cc(C(=O)NC(C)C[S+](C)[O-])c1NC(=O)c1cc(Cn2cc(Cl)c(C(F)(F)C(F)(F)F)n2)nn1-c1ncccc1Cl` (stereo not shown) [I-1-212] showed a logP of 3.25. For `Cc1cc(Cl)cc(C(=O)NC(C)CS(C)(=O)=O)c1NC(=O)c1cc(Cn2cc(Cl)c(C(F)(F)C(F)(F)F)n2)nn1-c1ncccc1Cl` (stereo not shown) [I-1-213], the logP was 3.60. `Cc1cc(Cl)cc(C(=O)NC(CN2CCCCC2)C2CC2)c1NC(=O)c1cc(Cn2cc(Cl)c(C(F)(F)C(F)(F)F)n2)nn1-c1ncccc1Cl` (stereo not shown) [I-1-214] gave a logP of 2.77. `CCN(CC)CC(C)NC(=O)c1cc(Cl)cc(C)c1NC(=O)c1cc(Cn2cc(Cl)c(C(F)(F)C(F)(F)F)n2)nn1-c1ncccc1Cl` (stereo not shown) [I-1-215] showed a logP of 2.62. In the case of `Cc1cc(F)cc(C(=O)NC(C)C[S+](C)[O-])c1NC(=O)c1cc(Cn2cc(Cl)c(C(F)(F)C(F)(F)F)n2)nn1-c1ncccc1Cl` (stereo not shown) [I-1-216], the logP is reported as 3.03. `Cc1cc(F)cc(C(=O)NC(C)C)c1NC(=O)c1cc(Cn2cc(C(F)(F)C(F)(F)F)c(C(F)(F)C(F)(F)F)n2)nn1-c1ncccc1Cl` [I-1-217] gave a logP of 4.47. In the case of `Cc1cc(F)cc(C(=O)NC(C)C)c1NC(=O)c1cc(Cn2nc(C(F)(F)F)nc2C(F)(F)F)nn1-c1ncccc1Cl` [I-1-218], the logP is reported as 3.55. In the case of `CNC(=O)c1cc(F)cc(C)c1NC(=O)c1cc(Cn2nc(C(F)(F)F)nc2C(F)(F)F)nn1-c1ncccc1Cl` [I-1-219], the logP is reported as 3.12. `CNC(=O)c1cc(F)cc(C)c1NC(=O)c1cc(Cn2cc(C(F)(F)C(F)(F)F)c(C(F)(F)C(F)(F)F)n2)nn1-c1ncccc1Cl` [I-1-220] gave a logP of 4.06. `CNC(=O)c1cc(F)cc(C)c1NC(=O)c1cc(Cn2nc(C(F)(F)F)cc2C(F)(F)F)nn1-c1ncccc1Cl` [I-1-221] showed a logP of 3.32. With `CNC(=O)c1cc(F)cc(C)c1NC(=O)c1cc(Cn2ccc(C(F)(F)F)n2)nn1-c1ncccc1Cl` [I-1-222] the logP was 2.58. With `CNC(=O)c1cc(F)cc(C)c1NC(=O)c1cc(Cn2cc(Cl)c(C(F)(F)C(F)(F)F)n2)nn1-c1ncccc1Cl` [I-1-223] the logP was 3.47. Molecule `Cc1cc(F)cc(C(=O)NC(C)C)c1NC(=O)c1cc(Cn2cc(Cl)c(C(F)(F)C(F)(F)F)n2)nn1-c1ncccc1Cl` [I-1-224] has a logP of 3.89. For `Cc1cc(F)cc(C(=O)NC(C)C)c1NC(=O)c1cc(Cn2nc(C(F)(F)F)cc2C(F)(F)F)nn1-c1ncccc1Cl` [I-1-225], the logP was 3.77. `Cc1cc(F)cc(C(=O)NC(C)C)c1NC(=O)c1cc(Cn2ccc(C(F)(F)F)n2)nn1-c1ncccc1Cl` [I-1-226] gave a logP of 3.00. Work on `CNC(=O)c1cc(I)cc(C)c1NC(=O)c1cc(Cn2nc(C(F)(F)F)cc2C(F)(F)F)nn1-c1ncccc1Cl` [I-1-227] yielded a logP of 3.87. In the case of `CCNC(=O)c1cc(I)cc(C)c1NC(=O)c1cc(Cn2nc(C(F)(F)F)cc2C(F)(F)F)nn1-c1ncccc1Cl` [I-1-228], the logP is reported as 4.06. Molecule `CCCNC(=O)c1cc(I)cc(C)c1NC(=O)c1cc(Cn2nc(C(F)(F)F)cc2C(F)(F)F)nn1-c1ncccc1Cl` [I-1-229] has a logP of 4.33. Molecule `Cc1cc(I)cc(C(=O)NC(C)C)c1NC(=O)c1cc(Cn2nc(C(F)(F)F)cc2C(F)(F)F)nn1-c1ncccc1Cl` [I-1-230] has a logP of 4.29. For `Cc1cc(I)cc(C(=O)NC2CC2)c1NC(=O)c1cc(Cn2nc(C(F)(F)F)cc2C(F)(F)F)nn1-c1ncccc1Cl` [I-1-231], the logP was 4.01. Molecule `Cc1cc(I)cc(C(=O)NCC(F)(F)F)c1NC(=O)c1cc(Cn2nc(C(F)(F)F)cc2C(F)(F)F)nn1-c1ncccc1Cl` [I-1-232] has a logP of 5.28. `Cc1cc(I)cc(C(=O)NC(C)C2CC2)c1NC(=O)c1cc(Cn2nc(C(F)(F)F)cc2C(F)(F)F)nn1-c1ncccc1Cl` (stereo not shown) [I-1-233] showed a logP of 4.55. Molecule `Cc1cc(I)cc(C(N)=O)c1NC(=O)c1cc(Cn2nc(C(F)(F)F)cc2C(F)(F)F)nn1-c1ncccc1Cl` [I-1-234] has a logP of 3.56. `Cc1cc(I)cc(C(=O)NCC2CC2)c1NC(=O)c1cc(Cn2nc(C(F)(F)F)cc2C(F)(F)F)nn1-c1ncccc1Cl` [I-1-235] gave a logP of 4.34. `Cc1cc(I)cc(C(=O)NC(C2CC2)C2CC2)c1NC(=O)c1cc(Cn2nc(C(F)(F)F)cc2C(F)(F)F)nn1-c1ncccc1Cl` [I-1-236] showed a logP of 4.80. `CNC(=O)c1cc(I)cc(C)c1NC(=O)c1cc(Cn2nc(C(F)(F)F)nc2C(F)(F)F)nn1-c1ncccc1Cl` [I-1-237] showed a logP of 3.60. `Cc1cc(I)cc(C(=O)NC(C)C)c1NC(=O)c1cc(Cn2nc(C(F)(F)F)nc2C(F)(F)F)nn1-c1ncccc1Cl` [I-1-238] gave a logP of 4.06. Molecule `CNC(=O)c1cc(I)cc(C)c1NC(=O)c1cc(Cn2cc(C(F)(F)C(F)(F)F)c(C(F)(F)C(F)(F)F)n2)nn1-c1ncccc1Cl` [I-1-239] has a logP of 4.51. `Cc1cc(I)cc(C(=O)NC(C)C)c1NC(=O)c1cc(Cn2cc(C(F)(F)C(F)(F)F)c(C(F)(F)C(F)(F)F)n2)nn1-c1ncccc1Cl` [I-1-240] gave a logP of 4.96. Molecule `Cc1cc(I)cc(C(=O)NCC#N)c1NC(=O)c1cc(Cn2nc(C(F)(F)F)cc2C(F)(F)F)nn1-c1ncccc1Cl` [I-1-241] has a logP of 3.73. In the case of `Cc1cc(I)cc(C(=O)NC(C)C)c1NC(=O)c1cc(Cn2cc(Cl)c(C(F)(F)C(F)(F)F)n2)nn1-c1ncccc1Cl` [I-1-242], the logP is reported as 4.40.
